Experimental data as given in ChEMBL document CHEMBL1140347, “Peptidyl vinyl ester derivatives: new class of selective inhibitors of proteasome trypsin-like activity” (J Med Chem, 2005).
pIC50: −log10 of the molar value.

Columns and labels:
Proteasome [1] = experiment: Inhibition of chymotrypsin like activity of the proteasome purified from lymphoblastoid cell lines (in vitro); format: subcellular
Proteasome [2] = experiment: Inhibition of trypsin like activity of the proteasome purified from lymphoblastoid cell lines (in vitro); format: subcellular
Proteasome [3] = experiment: Inhibition of post-acidic-like (PGPH) activity of the proteasome purified from lymphoblastoid cell lines (in vitro)
[4] = Half-life in culture medium (RPMI) in the presence of 10% foetal calf serum by incubation at […]; format: ADME; settings: cattle, culture medium (RPMI) with 10% foetal calf serum
[5] = Half-life in human plasma by incubation at […]; format: ADME, cell-free
Proteasome [6] = experiment: Inhibition of trypsin like activity of the proteasome in colon carcinoma cell lines HCT116; format: subcellular
Proteasome [7] = experiment: Inhibition of trypsin like activity of the proteasome in colon carcinoma cell lines COO115; format: subcellular

Row | Compound | pIC50 (Proteasome [1]) | pIC50 (Proteasome [2]) | pIC50 (Proteasome [3]) | half-life [4] | half-life [5] | pIC50 (Proteasome [6]) | pIC50 (Proteasome [7])
1 | CCOC(=O)/C=C/[C@H](CC(C)C)NC(=O)[C@H](CO)NC(=O)[C@@H](NC(=O)C1=CCCN(C(=O)OC(C)(C)C)C1)C(C)C | < 5.00 | 6.96 | < 5.00 | > 6 h | 2.57 h | – | –
2 | CCOC(=O)/C=C/[C@H](CC(C)C)NC(=O)[C@H](CO)NC(=O)[C@@H](NC(=O)C1=CCCNC1)C(C)C | 5.18 | 6.42 | < 5.00 | > 6 h | > 6 h | – | –
3 | CCOC(=O)/C=C/[C@H](CC(C)C)NC(=O)[C@H](CO)NC(=O)[C@@H](NC(=O)OCc1ccccc1)C(C)C | < 5.00 | 7.15 | < 5.00 | > 6 h | 3.97 h | – | –
4 | CCOC(=O)/C=C/[C@H](CC(C)C)NC(=O)[C@H](CO)NC(=O)[C@@H](NC(=O)c1cccc(O)c1C)C(C)C | < 5.00 | 7.48 | < 5.00 | > 6 h | > 6 h | 7.48 | –
5 | CCOC(=O)/C=C/[C@H](CC(C)C)NC(=O)[C@H](CC(C)C)NC(=O)[C@H](CC(C)C)NC(=O)C1=CCCN(C(=O)OC(C)(C)C)C1 | 5.36 | 6.72 | < 5.00 | > 6 h | 3.3 h | – | –
6 | CCOC(=O)/C=C/[C@H](CC(C)C)NC(=O)[C@H](CC(C)C)NC(=O)[C@H](CC(C)C)NC(=O)c1cccc(O)c1C | 5.38 | 7.39 | < 5.00 | > 6 h | > 6 h | – | 7.39
7 | CCOC(=O)/C=C/[C@H](CC(C)C)NC(=O)[C@H](CC(C)C)NC(=O)[C@H](CC(C)C)NC(=O)OCc1ccccc1 | 5.61 | 6.55 | < 5.00 | > 6 h | 4.87 h | – | –
8 | CCOC(=O)/C=C/[C@H](CC(C)C)NC(=O)[C@H](CC(C)C)NC(=O)[C@H](CC(C)C)NC(=O)C1=CCCNC1 | 6.07 | 6.68 | < 5.00 | > 6 h | > 6 h | – | –
